Legend:
Test in all cases: whole plant or invertebrate
Assay type in all cases: in vivo
[1] = system: silverleaf whitefly (Bemisia argentifolii Bellows and Perring); conditions: Bemisia argentifolii, in Gossypium hirsutum, Table 2B, read-out: % mortality (obs); for mortality at 10 ppm: rate 10 ppm; for mortality at 100 ppm: rate 100 ppm; for mortality at 1000 ppm: rate 1000 ppm
From the text: For evaluating control of silverleaf whitefly (Bemisia argentifolii Bellows and Perring) through contact and/or systemic means, each test unit consisted of a small open container with a 12- to 14-day-old cotton plant inside. This was pre-infested by placing test units into cages infested with adult whiteflies so that oviposition on the cotton leaves could occur. The adults were removed from the plants with an air-blast nozzle, and the test units were capped. The test units were then stored 2 to 3 days before spraying.
(§1) Test compounds were formulated using a solution containing 10% acetone, 90% water and 300 ppm X-77® Spreader Lo-Foam Formula non-ionic surfactant containing alkylarylpolyoxyethylene, free fatty acids, glycols and 2-propanol (Loveland Industries, Inc.) to provide the desired concentration in ppm. Formulated test solutions were then applied in 1 mL volumes through a SUJ2 atomizer nozzle with 1/8 JJ custom body (Spraying Systems Co.) positioned 1.27 cm (0.5 inches) above the top of each test unit.
The results for all experimental compositions in this test were replicated three times. After spraying of the formulated test composition, each test unit was allowed to dry for 1 hour and the cap removed. The test units were held for 13 days in a growth chamber at 28° C. and 50-70% relative humidity.

[2] = system: western flower thrip (Frankliniella occidentalis Pergande); conditions: Frankliniella occidentalis, 168 h, single compound, spray, 7 days, read-out: % mortality (obs); for mortality at 500 ppm: rate 500 ppm; for mortality at 1000 ppm: rate 1000 ppm; for mortality at 10 ppm: rate 10 ppm
Method: as §1
For evaluating control of the western flower thrip (Frankliniella occidentalis Pergande) through contact and/or systemic means, each test unit consisted of a small open container with a 5- to 7-day-old bean (var. Soleil) plant inside.
Test solutions were formulated and sprayed with 3 replications as described for Test A. After spraying, the test units were allowed to dry for 1 hour, 22 to 27 adult thrips were added to each unit and then a black, screened cap was placed on top. The test units were held for 7 days at 25° C. and 45-55% relative humidity.

[3] = system: potato leafhopper (Empoasca fabae Harris); conditions: Empoasca fabae, alone, read-out: % mortality (obs); for mortality at 10 ppm: rate 10 ppm; for mortality at 100 ppm: rate 100 ppm; for mortality at 1000 ppm: rate 1000 ppm; for mortality at 1 ppm: rate 1 ppm
Method: as §1
[…] White sand was added to the top of the soil, and one of the primary leaves was excised prior to application. Test compounds were formulated and sprayed with 3 replications as described for Test A. After spraying, the test units were allowed to dry for 1 hour before they were infested with 5 potato leafhoppers (18- to 21-day-old adults). A black, screened cap was placed on the top of each container. The test units were held for 6 days in a growth chamber at 19-21° C. and 50-70% relative humidity.

[4] = system: corn planthopper (Peregrines maidis); conditions: Corn Plant Hopper, read-out: % mortality (obs); for mortality at 1000 ppm: rate 1000 ppm
Method: as §1
For evaluating control of corn planthopper (Peregrines maidis) through contact and/or systemic means, each test unit consisted of a small open cylindrical container with a 3- to 4-day-old corn (maize) plant (spike) inside. White sand was added to the top of the soil prior to application. Test compounds were formulated and sprayed with 3 replications as described for Test A. After spraying, the test units were allowed to dry for 1 hour before they were post-infested with 10 to 20 corn planthoppers (18- to 20-day-old nymphs) by sprinkling them onto the sand with a salt shaker. A black, screened cap was placed on the top of each container. The test units were held for 6 days in a growth chamber at 19-21° C. and 50-70% relative humidity.

[5] = system: cotton melon aphid (Aphis gossypii Glover); conditions: Aphis gossypii, read-out: % mortality (obs); for mortality at 10 ppm: rate 10 ppm; for mortality at 100 ppm: rate 100 ppm; for mortality at 1000 ppm: rate 1000 ppm
Method: as §1
(§2) For evaluating control of cotton melon aphid (Aphis gossypii Glover) through contact and/or systemic means, each test unit consisted of a small open container with a 6- to 7-day-old cotton plant inside. This was pre-infested by placing on a leaf of the test plant 30 to 40 aphids on a piece of leaf excised from a culture plant (cut-leaf method). The larvae moved onto the test plant as the leaf piece desiccated. After pre-infestation, the soil of the test unit was covered with a layer of sand.
(§3) Test compounds were formulated and sprayed as described for Test A. The applications were replicated three times. After spraying of the formulated test compounds, each test unit was allowed to dry for 1 hour and then a black, screened cap was placed on top. The test units were held for 6 days in a growth chamber at 19-21° C. and 50-70% relative humidity.

[6] = system: green peach aphid (Myzus persicae Sulzer); conditions: Myzus persicae, in Raphanus sativus, Green Peach Aphid, read-out: % mortality (obs); for mortality at 10 ppm: rate 10 ppm; for mortality at 100 ppm: rate 100 ppm; for mortality at 1000 ppm: rate 1000 ppm
Method: as §1
as §2, with “green peach” for “cotton melon”, “(Myzus persicae Sulzer)” for “(Aphis gossypii Glover)”, “12-” for “6-”, “15-day-old radish” for “7-day-old cotton”
as §3, with “described in” for “described for”, “Test A,” for “Test A. The applications were”, “test compound,” for “test compounds,”

## Nc1nc(N)nc(NC2CC2)n1 [Cyromazine]
[1]
  mortality at 10 ppm: 1%
  mortality at 100 ppm: 2%
  mortality at 1000 ppm: 2%
[2]; rate 200 ppm
  mortality at 200 ppm: 70%
[2]
  mortality at 500 ppm: 80%
  mortality at 1000 ppm: 70%
[3]
  mortality at 10 ppm: 7%
  mortality at 100 ppm: 0%
  mortality at 1000 ppm: 0%
[4]; rate 200 ppm
  mortality at 200 ppm: 4%
[4]; rate 500 ppm
  mortality at 500 ppm: 8%
[4]
  mortality at 1000 ppm: 8%
[5]
  mortality at 10 ppm: 23%
  mortality at 100 ppm: 34%
  mortality at 1000 ppm: 28%
[6]
  mortality at 10 ppm: 24%
  mortality at 100 ppm: 33%
  mortality at 1000 ppm: 65%

## CC1(C)[C@H](C(=O)O[C@H](C#N)c2cccc(Oc3ccccc3)c2)[C@@H]1C=C(Br)Br [Deltamethrin]
[1]; rate 30 ppm
  mortality at 30 ppm: 2%
[1]; rate 40 ppm
  mortality at 40 ppm: 0%
[1]; rate 50 ppm
  mortality at 50 ppm: 1%
[2]
  mortality at 10 ppm: 70%
  mortality at 1000 ppm: 70%
[2]; rate 3000 ppm
  mortality at 3000 ppm: 50%
[3]; rate 0.1 ppm
  mortality at 0.1 ppm: 7%
[3]; rate 0.2 ppm
  mortality at 0.2 ppm: 7%
[3]
  mortality at 1 ppm: 60%
[4]; rate 0.1 ppm
  mortality at 0.1 ppm: 11%
[4]; rate 0.2 ppm
  mortality at 0.2 ppm: 14%
[4]; rate 0.3 ppm
  mortality at 0.3 ppm: 7%
[5]; rate 0.1 ppm
  mortality at 0.1 ppm: 52%
[5]; rate 0.2 ppm
  mortality at 0.2 ppm: 39%
[5]; rate 0.3 ppm
  mortality at 0.3 ppm: 88%
[6]; rate 250 ppm
  mortality at 250 ppm: 9%
[6]; rate 300 ppm
  mortality at 300 ppm: 3%
[6]
  mortality at 1000 ppm: 9%

## CCOC(=O)NCCOc1ccc(Oc2ccccc2)cc1 [Fenoxycarb]
[1]; rate 2 ppm
  mortality at 2 ppm: 0%
[1]
  mortality at 10 ppm: 0%
[1]; rate 20 ppm
  mortality at 20 ppm: 21%
[2]
  mortality at 10 ppm: 40%
  mortality at 1000 ppm: 60%
[2]; rate 100 ppm
  mortality at 100 ppm: 70%
[3]
  mortality at 10 ppm: 0%
  mortality at 100 ppm: 20%
  mortality at 1000 ppm: 0%
[4]; rate 10 ppm
  mortality at 10 ppm: 8%
[4]; rate 100 ppm
  mortality at 100 ppm: 2%
[4]
  mortality at 1000 ppm: 5%
[5]
  mortality at 10 ppm: 16%
  mortality at 100 ppm: 23%
  mortality at 1000 ppm: 34%
[6]
  mortality at 10 ppm: 17%
  mortality at 100 ppm: 16%
  mortality at 1000 ppm: 18%

## CC1(C)CNC(=NN=C(/C=C/c2ccc(C(F)(F)F)cc2)/C=C/c2ccc(C(F)(F)F)cc2)NC1 [Hydramethylnon]
[1]
  mortality at 10 ppm: 2%
  mortality at 100 ppm: 1%
  mortality at 1000 ppm: 0%
[2]
  mortality at 10 ppm: 60%
  mortality at 500 ppm: 50%
  mortality at 1000 ppm: 40%
[3]; rate 0.01 ppm
  mortality at 0.01 ppm: 0%
[3]
  mortality at 1 ppm: 27%
[3]; rate 2 ppm
  mortality at 2 ppm: 60%
[4]; rate 0.01 ppm
  mortality at 0.01 ppm: 7%
[4]; rate 1 ppm
  mortality at 1 ppm: 1%
[4]; rate 2 ppm
  mortality at 2 ppm: 6%
[5]; rate 500 ppm
  mortality at 500 ppm: 21%
[5]
  mortality at 1000 ppm: 40%
[5]; rate 1500 ppm
  mortality at 1500 ppm: 39%
[6]; rate 500 ppm
  mortality at 500 ppm: 18%
[6]
  mortality at 1000 ppm: 8%
[6]; rate 1500 ppm
  mortality at 1500 ppm: 7%
